Reference: patent US9974785B2, “Aromatic heterocyclic derivatives and pharmaceutical applications thereof” (SUNSHINE LAKE PHARMA CO., LTD., priority 2014, dated 2018)

Tests used:
[1] = Pharmacokinetic evaluation after intravenous or gavage administration to dogs; type: in vivo, Beagle dogs; details: for AUC(0-inf) / AUC(0-t) / Cmax / MRT inf / Tmax / clearance / half-life / Vd: beagle, dog, plasma; for Vd: read-out: Vss
Protocol: Example B: Pharmacokinetic Evaluation after Administering a Certain Amount of the Compounds of the Invention Intravenously or by Gavage to Dogs and Monkeys
In vivo pharmacokinetic assays in dogs and cynomolgus monkeys of the compounds disclosed herein were performed by the following steps.
Experiments were divided into two groups, one group was administered through intravenous drug delivery, and the other group was administered by gavage. The compounds disclosed herein were administered in form of a saline solution containing 5% DMSO, 5% Kolliphor HS 15, 2% (2% HCl) and 88% Saline, or the solution containing 10% DMSO, 10% Kolliphor HS 15 and 80% physiological saline. For intravenous administration, the animals were administered with a dose of 1 mg/kg, and 0.3 mL of vein blood was collected at the time points of 0.083, 0.25, 0.5, 1.0, 2.0, 4.0, 6.0, 8.0 and 24 h after drug administration (the time point of drug administration was set as 0 h), then each blood sample was processed to separate plasma by centrifugation at 3000 rpm or 4000 rpm for 10 minutes, and plasma was collected and stored at −20° C. or −70° C. until LC/MS/MS analysis described above. For gavage administration, the animals were administered with a dose of 2.5 mg/kg or 5 mg/kg, and 0.3 mL of vein blood was collected at the time points of 0.25, 0.5, 1.0, 2.0, 4.0, 6.0, 8.0 and 24 h after drug administration (the time point of drug administration was set as 0 h), then each blood sample was processed to separate plasma by centrifugation at 3000 rpm or 4000 rpm for 10 minutes, and plasma was collected and stored at −20° C. or −70° C. until LC/MS/MS analysis described above.
The above plasma was analyzed by the LC/MS/MS system.

[2] = Stability in rat liver microsomes; type: in vitro ADME; details: rat liver microsome 0.5 mg/mL, 1 μM compound, 37° C.; for half-life at 1 μM: pH 7.4; for CLint scaled at 1 μM: pH 7.4, read-out: Intrinsic clearance
Protocol: (§1) Example C: Evaluation of the Stability of the Compounds of the Invention in Rat and Human Liver Microsomes
(§2) The compound of the invention and rat liver microsome or human liver microsome were placed in 0.1 M potassium phosphate buffer (containing 1.0 mM EDTA, pH=7.4) at 37° C., and the mixture was incubated at 37° C. The concentrations of the compound at different incubation time points were determined, and the half-life of the compound was calculated by curve plotted based on the relative contents of the compound and the corresponding incubation times by using GraphPad Prism 5.01. Then the intrinsic clearance was calculated.
(§3) The peak area ratio of sample to internal standard was analyzed by the LC/MS/MS system. The content of the compound at 0 min was 100%, and the relative contents of the compound at different time points were calculated. The half-life of the compound was calculated by curve plotted based on the relative contents of the compound and the corresponding incubation times, and the intrinsic clearance was calculated.

human 5-HT6 receptor = human 5-HT6 receptor (Homo sapiens (Human), UniProt P50406); assay: Radioligand binding assay, human 5-HT6 receptor expressed in CHO cell; details: 2 nM [3H]LSD
Chain of human 5-HT6 receptor (P50406 whole entry): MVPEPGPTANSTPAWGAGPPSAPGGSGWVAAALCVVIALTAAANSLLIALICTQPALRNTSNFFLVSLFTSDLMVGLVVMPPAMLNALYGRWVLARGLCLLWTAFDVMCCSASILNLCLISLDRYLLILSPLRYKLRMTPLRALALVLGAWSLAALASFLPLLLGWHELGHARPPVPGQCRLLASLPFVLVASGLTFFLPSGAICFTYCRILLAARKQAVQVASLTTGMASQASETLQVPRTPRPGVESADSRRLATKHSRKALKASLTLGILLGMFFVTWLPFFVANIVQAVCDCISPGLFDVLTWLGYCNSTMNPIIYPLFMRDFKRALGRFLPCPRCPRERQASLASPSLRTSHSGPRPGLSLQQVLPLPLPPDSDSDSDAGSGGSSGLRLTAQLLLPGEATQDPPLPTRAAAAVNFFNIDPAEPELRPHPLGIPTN
Protocol: Example A: The Binding Affinities of the Compounds of this Invention to Human 5-HT6 Receptor Expressed in CHO Cell were Evaluated by Radioligand Binding Assay as Follows
32 μg membrane proteins of CHO cell expressing human 5-HT6 receptor, 2 nM of radioactive marker [3H]LSD, a compound of the present invention having different test concentrations, 100 μM 5-HT (5-HT was used to eliminate nonspecific binding sites) and a buffer solution were mixed uniformly. Then the resulting mixture was incubated at 37° C. for 120 min, in which the buffer solution comprised 50 mM Tris-HCl (pH 7.4), 10 mM MgCl2, 0.5 mM EDTA, 10 μM pargyline and 20 mg/L protease inhibitor.
After incubation, the resulting mixture was filtered by a fiberglass filter (GF/B, Packard) in vacuo, and the filter membrane of the fiberglass filter was preimpregnated with 0.3% PEI before the filtering and washed with 50 mM of Tris-HCl for several times after the filtering. After the filter membrane was dried, and the radioactivity of filter membrane was determined by liquid scintillation counting by using a scintillometer (Topcount, Packard). The reference standard was 5-HT, and competitive inhibition curves were plotted based on several inhibition ratios and the corresponding compound concentrations. IC50 values were calculated by non-linear regression analysis using Hill equation curves, and the Ki values were calculated from IC50 by using the ChengPrusoff equation.

[3] = Stability in human liver microsomes; type: in vitro ADME; details: for half-life at 1 μM / CLint scaled at 1 μM: liver microsomes, human liver microsome 0.5 mg/mL, 1 μM compound, 37° C., pH 7.4; for CLint scaled at 1 μM: read-out: Intrinsic clearance
Protocol: as §1, §2, §3

[4] = intravenous drug delivery group, dose 1 mg/kg
[5] = po, gavage group, dose 2.5 mg/kg

Compound | AUC(0-inf) [1, 4] [ng·h/mL] | AUC(0-t) [1, 4] [ng·h/mL] | Cmax [1, 4] [ng/mL] | MRT inf [1, 4] [h] | Tmax [1, 4] [h] | clearance [1, 4] [mL/min/kg] | half-life [1, 4] [min] | Vd [1, 4] [L/kg] | half-life at 1 μM [2] [min] | CLint scaled at 1 μM [2] [mL/min/kg] | Ki (human 5-HT6 receptor) [nM] | half-life at 1 μM [3] [min] | CLint scaled at 1 μM [3] [mL/min/kg] | AUC(0-inf) [1, 5] [ng·h/mL] | AUC(0-t) [1, 5] [ng·h/mL] | Cmax [1, 5] [ng/mL] | MRT inf [1, 5] [h] | Tmax [1, 5] [h] | half-life [1, 5] [min] | F ([1]; gavage group, dose 2.5 mg/kg) [%] | further results
O=S(=O)(c1cccc(F)c1)n1cc(C(F)F)c2c(N3CCNCC3)cccc21 [Example 5, 3-(difluoromethyl)-1-((3-fluorophenyl)sulfonyl)-4-(piperazin-1-yl)-1H-indole] | 1190 | 1100 | 125 | 8.77 | 0.389 | 14 | 389 | 7.36 | 43.5 | 57.1 | 0.52 | 218 | 7.99 | – | – | – | – | – | – | – | AUC(0-inf) ([1]; po, gavage group, dose 5 mg/kg): 8350 ng·h/mL; AUC(0-t) ([1]; po, gavage group, dose 5 mg/kg): 5680 ng·h/mL; Cmax ([1]; po, gavage group, dose 5 mg/kg): 347 ng/mL; MRT inf ([1]; po, gavage group, dose 5 mg/kg): 15 h; Tmax ([1]; po, gavage group, dose 5 mg/kg): 6 h; half-life ([1]; po, gavage group, dose 5 mg/kg): 606 min; F ([1]; gavage group, dose 5 mg/kg): 103.21%; degradation in human liver microsomes in vitro ([3]; in 60 minutes): almost had no degradation
O=S(=O)(c1ccccc1Cl)n1cc(C(F)F)c2c(N3CCNCC3)cccc21 [Example 3, 1-((2-chlorophenyl)sulfonyl)-3-(difluoromethyl)-4-(piperazin-1-yl)-1H-indole] | 2340 | 2660 | 293 | 8.77 | 8.06 | 7.13 | 376 | 3.77 | 30.1 | 82.6 | 0.43 | 132 | 13.2 | 17600 | 9250 | 975 | 17.9 | 4.67 | 882 | 139 | –
O=S(=O)(c1ccccc1F)n1cc(C(F)F)c2c(N3CCNCC3)cccc21 [Example 2, 3-(difluoromethyl)-1-((2-fluorophenyl)sulfonyl)-4-(piperazin-1-yl)-1H-indole] | 926 | 781 | 106 | 8.73 | 0.194 | 18.5 | 386 | 9.86 | 35 | 71 | 0.46 | 133 | 13.1 | 3160 | 2400 | 173 | 16.8 | 3.33 | 684 | 103.67 | –
